# Measurements published in PMC9937529, “Mechanism of activation and biased signaling in complement receptor C5aR1” (Cell Research, 2023).
# Square brackets hold non-standard residues; d marks the D form. Peptide text beside a SMILES is read from it. Nva = CCC[C@H](N)C(=O)O
# Columns and labels:
# C5aR1 wild type = molecular target: T1, C5aR1 wild type (Homo sapiens, UniProt P21730); test: BRET-based Gαi1–γ2 dissociation assay (G protein signaling); type: cell-based; details: HEK293, Gi protein dissociation assay (Fig. S10a), ligand 10 min, mean±SEM, n=3
# T1 construct: expressed in transfected cells; host or cells: HEK293
# T1 sequence (P21730 1-350): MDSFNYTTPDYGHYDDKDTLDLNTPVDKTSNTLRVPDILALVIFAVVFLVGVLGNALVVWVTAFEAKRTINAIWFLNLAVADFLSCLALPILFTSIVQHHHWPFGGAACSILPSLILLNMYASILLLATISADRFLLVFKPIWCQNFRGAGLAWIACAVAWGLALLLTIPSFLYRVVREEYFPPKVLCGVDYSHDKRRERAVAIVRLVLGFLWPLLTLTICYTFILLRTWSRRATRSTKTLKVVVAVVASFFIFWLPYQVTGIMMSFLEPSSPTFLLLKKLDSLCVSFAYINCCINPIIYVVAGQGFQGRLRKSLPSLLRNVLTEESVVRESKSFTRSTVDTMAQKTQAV
# Description: The activation of C5aR1 induced by ligands was measured through BRET-based Gαi1 dissociation from Gβ1γ2 as previously described.[60] HEK293 cells were plated in 6-well plates containing 600,000–800,000 cells per well and cultured 24 h at 37 °C in cell incubator. […] After transfection for 24 h, cells were harvested and dispensed into 96-well white plates and allowed to culture overnight. […] Next, prepared ligands were added into cells for 10 min and the second BRET signal was measured. […] Data were analyzed using a simulation dose-response in GraphPad Prism 7.
# C5aR1-WT = molecular target: T2, C5aR1-WT (Homo sapiens, UniProt P21730); test: BRET assay measuring β-arrestin 2 recruitment; type: cell-based; details: C5aR1 wild type, HEK293, BRET, mean±SEM, n=3, Table S5, read-out: EC50, β-arrestin2 recruitment
# T2 construct: expressed in transfected cells; host or cells: HEK293
# T2 sequence (P21730 1-350): T1 sequence (P21730 1-350)
# Description: Briefly, HEK293 cells were transiently transfected with C5aR1-Nluc and mVenus-β-arrestin 2 or C5aR2-mVenus and Nluc-β-arrestin 2 constructs using PEI transfection reagent (YEASEN, 40816ES02) according to the manufacturer’s instruction. At 24 h post transfection, the cells were gently detached and seeded (100,000/well) onto 96-well white plates in DMEM containing 5% FBS. On the next day, cells were washed once with Phosphate Buffered Saline (PBS) and incubated in HBSS containing 20 mM HEPES, pH 7.4, with coelenterazine h (5 μM, YEASEN, 40906ES02) for 1 h (37 °C, 5% CO2). […] We carried out the nonlinear regression (curve fit) dose-response function in GraphPad Prism 7 to yield the values of Emax and EC50.
# C5aR1 [1] = test: Bias calculation, Gi protein signaling vs β-arrestin 2 recruitment; type: cell-based, human; details: from curve fit parameters, endogenous agonist C5a as reference; β value > 0 Gi protein-biased, < 0 β-arrestin-biased
# Description: The measurement of cAMP inhibition and β-arrestin recruitment in our study was performed as described. Besides, the parameters used below were based on the curve fits of the combined datasets described above.
# C5aR1 [2] = test: Biased antagonism in competition with C5a (Gi-protein signaling vs β-arrestin 2 recruitment); type: cell-based, human; details: HEK293
# Description: To measure cAMP inhibition effects on the forskolin-induced cAMP accumulation of C5aR1, the GloSensor cAMP assay (Promega) was performed as described in the previous study.[59] Briefly, Flag-tagged wild-type human C5aR1 was co-expressed with GloSensor plasmid in HEK293 cells in 6-well culture plates. After at least 24 h, transfected cells were harvested and suspended in assay buffer Hank’s Balanced Salt Solution (HBSS) containing 10 mM HEPES, pH 7.4, with an additional 3% v/v dilution of the D-Luciferin-Potassium Salt (YEASEN, 40902ES01). […] Finally, the luminescence signals were counted on the Synergy H1 microplate reader (BioTek). […]
# The C5a-mediated β-arrestin 2 recruitment to C5aR1 and C5aR2, respectively, was measured using BRET-based assay as previously described.[36],[61],[62] […] The baseline BRET light emissions (460–485 nm and 520–545 nm) were monitored by the Synergy H1 microplate reader (BioTek). After the incubation of different diluted concentrations of agonist with or without antagonist for 10 min, the second BRET light emissions were measured and the ligand-induced BRET ratio was calculated by subtracting the acceptor (mVenus, 520–545 nm) over donor (Nluc, 460–485 nm) emission ratio of the vehicle-treated wells from that of the ligand-treated wells. […]
EC50 (C5aR1 wild type) [nM],EC50 (C5aR1-WT) [nM],Compound,"Signaling bias (bias factor, in words) (C5aR1 [1])",Biased antagonism (in words) (C5aR1 [2])
455 ± 34.9,155000 ± 59000,CC(=O)N[C@@H](Cc1ccccc1)C(=O)N[C@@H](CCCCN)C(=O)N1CCC[C@H]1C(=O)N[C@@H](CC(C)C)C(=O)N[C@@H](C)C(=O)N[C@@H](Cc1ccccc1)C(=O)N[C@H](C)C(=O)N[C@@H](CCCNC(=N)N)C(=O)O [BM213P6-F] (Ac-FKPLAF[dA]R-OH),,
,,CC(=O)N[C@@H](Cc1ccccc1)C(=O)N[C@@H](CCCCN)C(=O)N1CCC[C@H]1C(=O)N[C@@H](CC(C)C)C(=O)N[C@@H](C)C(=O)N[C@@H](CC(C)C)C(=O)N[C@H](C)C(=O)N[C@@H](CCCNC(=N)N)C(=O)O [BM213P6-L] (Ac-FKPLAL[dA]R-OH; C-terminus assumed),increased β-arrestin-biased features compared to BM213,
,,CCC[C@H](NC(=O)[C@H](C)NC(=O)[C@H](CC(C)C)NC(=O)[C@@H]1CCCN1C(=O)[C@H](CCCCN)NC(=O)[C@H](Cc1ccccc1)NC(C)=O)C(=O)N[C@H](C)C(=O)N[C@@H](CCCNC(=N)N)C(=O)O [BM213P6-Nva] (Ac-FKPLA[Nva][dA]R-OH),increased β-arrestin-biased features compared to BM213,
35.5 ± 4.23,2590 ± 110,CC(=O)N[C@@H](Cc1ccccc1)C(=O)N[C@@H](CCCCN)C(=O)N1CCC[C@H]1C(=O)N[C@@H](CC(C)C)C(=O)N[C@@H](C)C(=O)N[C@H](C(=O)N[C@H](C)C(=O)N[C@@H](CCCNC(=N)N)C(=O)O)C(C)C [BM213P6-V] (Ac-FKPLAV[dA]R-OH),,
,,Cc1ccc(NC(=O)[C@H]2CCCN(C(=O)c3c(C)cccc3F)[C@H]2c2ccc(NC3CCCC3)cc2)cc1C(F)(F)F [avacopan],,biased inhibition toward β-arrestin recruitment over G protein coupling
,,PMX53,,the opposite
